Positions count from the first letter of the chain named.
Legend:
Assay in all cases: cAMP accumulation assay (LANCE Ultra cAMP kit), GIPR WT, mutant or modified constructs
Type in all cases: cell-based
Parameters in all cases: acylated tirzepatide to the full-length or modified; Flag; expressed in transfected cells; host or cells: HEK293T
GIPR [1] = biological target: T1, GIPR (Homo sapiens, UniProt P48546, W209A); conditions: GIPR W209A, HEK293T
T1 sequence (P48546 22-466 W209A): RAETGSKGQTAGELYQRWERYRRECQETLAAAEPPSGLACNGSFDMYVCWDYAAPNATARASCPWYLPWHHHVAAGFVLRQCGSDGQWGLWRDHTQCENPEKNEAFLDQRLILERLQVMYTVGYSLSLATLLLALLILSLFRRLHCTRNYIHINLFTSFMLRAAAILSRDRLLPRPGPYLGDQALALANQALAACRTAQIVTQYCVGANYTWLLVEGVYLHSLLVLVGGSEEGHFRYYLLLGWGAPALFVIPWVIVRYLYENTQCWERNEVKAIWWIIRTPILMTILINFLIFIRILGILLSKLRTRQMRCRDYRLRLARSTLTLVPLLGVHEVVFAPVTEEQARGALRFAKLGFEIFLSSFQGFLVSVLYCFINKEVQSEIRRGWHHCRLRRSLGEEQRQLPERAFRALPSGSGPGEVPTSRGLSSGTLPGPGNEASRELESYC
Procedure, shortened: (§1)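 HEK293T cells transiently transfected with human GIPR WT or mutant constructs (pcDNA3.1), used after 24 h. The cells were stimulated with peptide agonists for 40 min at RT in HBSS with 5 mM HEPES, 0.1% BSA or casein, and 0.5 mM IBMX. cAMP was read by LANCE Ultra TR-FRET (Eu-cAMP tracer/ULight anti-cAMP, 1 h RT, 620/650 nm).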

GIPR [2] = biological target: T2, GIPR (Homo sapiens, UniProt P48546, R196A); conditions: GIPR R196A, HEK293T
T2 sequence (P48546 22-466 R196A): T1 sequence (P48546 22-466 W209A) with R175A, A188W
Procedure, shortened: as §1

GIPR [3] = biological target: T3, GIPR (Homo sapiens, UniProt P48546, Q30A); conditions: GIPR Q30A, HEK293T
T3 sequence (P48546 22-466 Q30A): T1 sequence (P48546 22-466 W209A) with Q9A, A188W
Procedure, shortened: as §1

[4] = read-out: cAMP pEC50 (converted)

`CCCCCCCCCCCCCCCC(=O)N[C@@H](CCC(=O)NCCCC[C@H](NC(=O)[C@H](CC(=O)O)NC(=O)[C@H](CO)NC(=O)[C@@H](NC(=O)[C@H](Cc1ccccc1)NC(=O)[C@@H](NC(=O)CNC(=O)[C@H](CCC(N)=O)NC(=O)C(C)(C)NC(=O)[C@@H](N)Cc1c[nH]cn1)[C@@H](C)O)[C@@H](C)O)C(=O)N[C@@H](CO)C(=O)N[C@@H](CCCCN)C(=O)N[C@@H](Cc1ccc(O)cc1)C(=O)N[C@@H](CC(C)C)C(=O)N[C@@H](CC(=O)O)C(=O)N[C@@H](CCC(=O)O)C(=O)N[C@@H](CCCNC(=N)N)C(=O)N[C@@H](C)C(=O)N[C@@H](C)C(=O)N[C@@H](CCC(N)=O)C(=O)N[C@@H](CC(=O)O)C(=O)N[C@@H](Cc1ccccc1)C(=O)N[C@H](C(=O)N[C@@H](CCC(N)=O)C(=O)N[C@@H](Cc1c[nH]c2ccccc12)C(=O)N[C@@H](CC(C)C)C(=O)N[C@@H](CC(C)C)C(=O)N[C@@H](CC(=O)O)C(=O)NCC(=O)NCC(=O)N1CCC[C@H]1C(=O)N[C@@H](CO)C(=O)N[C@@H](CO)C(=O)NCC(=O)N[C@@H](C)C(=O)N1CCC[C@H]1C(=O)N1CCC[C@H]1C(=O)N1CCC[C@H]1C(=O)N[C@@H](CO)C(N)=O)C(C)C)C(=O)O` [Peptide 20] showed an EC50 (GIPR [1]; [4]) of 3.63 pM, an Emax (GIPR [1]; HEK-293T) of 100 ± 1.45% and an EC50 (GIPR [2]; [4]) of 46.8 pM. The Emax (GIPR [2]; HEK-293T) was 98.5 ± 1.43%, the EC50 (GIPR [3]; [4]) was 42.7 pM and the Emax (GIPR [3]; HEK-293T) was 100 ± 1.79%.

From paper PMC8881610 (Nature Communications, 2022)
